Results published in patent publication US20200338084A1, “INHIBITORS OF LOW MOLECULAR WEIGHT PROTEIN TYROSINE PHOSPHATASE (LMPTP) AND USES THEREOF” (Sanford Burnham Prebys Medical Discovery Institute, priority 2018, published 2020).
pIC50: −log10 of the molar value.

Biological target: T1, human LMPTP-A (Homo sapiens, UniProt P24666)
T1 sequence (P24666 1-158): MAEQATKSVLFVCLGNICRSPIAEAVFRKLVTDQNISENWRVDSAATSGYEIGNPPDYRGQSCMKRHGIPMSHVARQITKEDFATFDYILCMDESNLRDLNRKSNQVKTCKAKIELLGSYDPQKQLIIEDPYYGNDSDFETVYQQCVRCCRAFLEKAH
Experiment: Enzyme Assay of Inhibition of LMPTP-A
Assay type: biochemical
Conditions: phosphatase assay, OMFP or pNPP substrate, 50 mM Bis-Tris pH 6.0, 37° C.
Summary of the method: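 Recombinant human LMPTP-A in 50 mM Bis-Tris pH 6.0, 1 mM DTT, 0.01% Triton X-100 at 37° C. Substrate OMFP read continuously by fluorescence (485/525 nm), or pNPP stopped with NaOH and read at 405 nm. IC50 taken from inhibitor concentration versus % activity plots.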

| pIC50 | SMILES |
| --- | --- |
| 4.70 to 6.00 | CC(C)(C)c1cccc(Nc2ncn(Cc3c(Cl)cccc3Cl)c3ncnc2-3)c1 [{3-[(2,6-Dichlorophenyl)methyl](3-hydropurin-6-yl)}[3-(tert-butyl)phenyl]amine] |
| 4.70 to 6.00 | Clc1cccc(Cl)c1Cn1cnc(Nc2ccccc2)c2ncnc1-2 [{3-[(2,6-Dichlorophenyl)methyl](3-hydropurin-6-yl)}phenylamine] |
| ≥ 6.00 | Clc1ccccc1Nc1ncn(Cc2c(Cl)cccc2Cl)c2ncnc1-2 [{3-[(2,6-Dichlorophenyl)methyl](3-hydropurine-6-yl)}(2-chlorophenyl)amine] |
| 4.70 to 6.00 | COc1ccc(CNc2ncn(Cc3c(Cl)cccc3Cl)c3ncnc2-3)cc1 [{3-[(2,6-dichlorophenyl)methyl](3-hydropurin-6-yl)}[(4-methoxyphenyl)methyl]amine] |
| ≤ 4.70 | Cc1ccc(S(=O)(=O)Nc2ncn(Cc3c(Cl)cccc3Cl)c3ncnc2-3)cc1 [{3-[(2,6-dichlorophenyl)methyl](3-hydropurin-6-yl)}[(4-methylphenyl)sulfonyl]amine] |
| 4.70 to 6.00 | Cc1ccc(CNc2ncn(Cc3c(Cl)cccc3Cl)c3ncnc2-3)o1 [{3-[(2,6-dichlorophenyl)methyl](3-hydropurin-6-yl)}[(5-methyl(2-furyl))methyl]amine] |
| ≤ 4.70 | O=S(=O)(Cc1cccc(F)c1)Nc1ncn(Cc2c(Cl)cccc2Cl)c2ncnc1-2 [{3-[(2,6-dichlorophenyl)methyl](3-hydropurin-6-yl)}{[(3-fluorophenyl)methyl]sulfonyl}amine] |
